Consider eight compounds from publication PMC7841069, “Identification of Chalcone Derivatives as Inhibitors of Leishmania infantum Arginase and Promising Antileishmanial Agents” (Frontiers in Chemistry, 2021).

Structures are written as SMILES. Read-outs that look alike come from different tables or passages of the source.

As usually defined, the CC50 is the concentration that lowers cell viability or growth by half. A word on the IC50: it is the concentration that inhibits the measured activity by half.

One series is described as follows: Cytotoxicity assay (MTT). The conditions noted are these: mouse, read-out: RAW 264.7 CC50 ± SE. It counts as cell-based. The method, then:
(§1) RAW 264.7 macrophages were cultured in DMEM medium (Sigma-Aldrich, USA) supplemented with 10% fetal bovine serum at 37°C in 5% CO2 atmosphere. Cells were plated on 96-well microplates at a density of 10^5 cells/well and incubated at 37°C in 5% CO2 for 2 h. After this period, increasing concentrations of inhibitors (0.9–4,307 μM) were added and the cultures were incubated at 37°C in 5% CO2 for 48 h. Subsequently, cell viability was measured by a colorimetric assay using 3-(4,5-dimethylthiazol-2-yl)-2,5-diphenyl tetrazolium bromide (MTT) (Sigma-Aldrich, USA). MTT was added to the culture medium at a final concentration of 1.0 mg/mL, and cultures were incubated at 37°C in 5% CO2 for 3 h. MTT was transformed by the living cells in formazan crystals that were dissolved in DMSO. The concentration of formazan was measured spectrophotometrically at 570 nm (SpectraMax M5, Molecular Devices, CA). The 50% cytotoxic concentration (CC50) values were determined by the nonlinear regression fits of the dose-response curves using GraphPad Prism 8.0. All measurements were performed in triplicates, twice independently.

The subject of series [1] is RAW 264.7 macrophages. The arrangement: method as in Ventura et al. (2015). The conditions noted are these: ref Ventura et al. (2015), read-out: IC50 for NO; cited from earlier work.
For series [2], the system named is Leishmania infantum promastigotes. The series can be described thus: Activity against Leishmania infantum promastigotes (resazurin). It counts as cell-based. The conditions noted are these: for Selectivity Index PRO: CC50 host cell / IC50 promastigotes; for IC50: Leishmania infantum, read-out: Promastigotes IC50 ± SE. The method, then: Promastigotes of Leishmania infantum strain MHOM/BR/1974/PP75 were cultured in Schneider's medium supplemented with 10% fetal bovine serum at 26°C. First, the selected LiARG inhibitors were diluted in culture medium at concentrations ranging from 2.9 to 1,723.0 μM. Then, late-exponential phase (after 96 h growth) L. infantum promastigotes, at a final density of 10^5 parasites/mL, were incubated with previously diluted inhibitors at 26°C for 96 h. Subsequently, parasite viability was determined by a colorimetric assay using resazurin (Sigma-Aldrich, USA). Resazurin was added to the culture medium at a final concentration of 0.001% (w/v), and cultures were further incubated at 26°C for 4 h (Rólon et al., [2006]). Resazurin is reduced to resorufin by living cells, and the relative concentration of resorufin/resazurin was measured spectrophotometrically at 570/600 nm (SpectraMax M5, Molecular Devices, CA), respectively. Fungizone® (2.0–650.0 nM) was used as the reference drug. The 50% inhibitory concentration (IC50) values were determined by the nonlinear regression fits of the dose-response curves using GraphPad Prism 8.0. All measurements were performed in triplicates, twice independently.
(§2) The selectivity index for promastigotes and intracellular amastigotes of L. infantum was calculated by taking the ratio between the CC50 obtained for the host cell and the IC50 obtained for the parasite. Inhibitors displaying selectivity index > 10 were considered low cytotoxic (Katsuno et al., [2015]).
(In general: Resazurin is reduced to fluorescent resorufin, in cell work by metabolically active cells.)

In series [3] the test system is Leishmania infantum intracellular amastigotes. The series can be described thus: Activity against intracellular amastigotes (promastigote recovery assay). It counts as cell-based. The conditions noted are these: for Selectivity Index AMA: CC50 host cell / IC50 intracellular amastigotes. How it is done: (§3) Intracellular anti-amastigote activity was determined using the promastigote recovery assay with minor modifications (Ferreira et al., [2017]). RAW 264.7 macrophages were plated on 96-well microplates at a density of 10^5 cells/well and incubated at 37°C in 5% CO2 for 2 h. After this period, adherent cells were washed twice with phosphate buffered saline (PBS, pH 7.2) and infected with stationary-phase L. infantum promastigotes at a 10:1 parasite/macrophage ratio. After 4 h of infection at 37°C in 5% CO2, free parasites were removed by a wash step with PBS and infected macrophages were incubated for an additional 24 h to allow parasite differentiation into amastigotes. Then, infected cells were treated with increasing concentrations of selected LiARG inhibitors (11.0–54.0 μM) for 48 h. After this period, the culture supernatant was collected for the evaluation of NO production by the Griess reaction (Misko et al., [1993]), and cells were washed with PBS. Subsequently, PBHIL medium supplemented with 5% fetal bovine serum was added and the cultures were incubated at 26°C for 72 h to recover L. infantum promastigotes. Only viable amastigotes can differentiate into promastigotes. Then, parasite viability was determined by a colorimetric assay using MTT (1.0 mg/mL) (Sigma-Aldrich, USA), as described earlier. Fungizone® (130–540 nM) was used as the reference drug. Results were expressed as percentages of viability in relation to the control (100% viability). The 50% inhibitory concentration (IC50) values were determined by the nonlinear regression fits of the dose-response curves using GraphPad Prism 8.0. All measurements were performed in triplicates, twice independently.
as §2

Series [4] has as its system L. infantum-infected macrophages. The series is described as follows: NO production by L. infantum-infected macrophages (Griess reaction). The series is classed as cell-based. Conditions: 11–54 μM, 48 h, vs untreated control. How it is done: as §3
Figure 4 Effect of chalcone derivatives on the production of nitric oxide by L. infantum-infected macrophages. L. infantum-infected macrophages were treated with increasing concentrations of (A–D) chalcone derivatives (11–54 μM) or (E) the reference drug fungizone (0.13–0.54 μM) and nitrite concentration was measured by the Griess reaction. Control represents the amount of nitric oxide produced by L. infantum-infected macrophages in the absence of any treatment. Statistical analysis of the differences between mean values obtained for the experimental groups was done by ANOVA with Tukey's post hoc test.
Background: Nitrite, measured by Griess reagent, commonly stands in for NO production.

For series [5], the system named is RAW 264.7 macrophages. The series can be described thus: Cytotoxicity assay (MTT). The series is classed as cell-based. The conditions noted are these: 48 h. How it is done:
as §1

The subject of series [6] is Leishmania infantum arginase (LiARG). The series can be described thus: LiARG enzyme inhibition assay (urea formation, UREA CE kit). It counts as biochemical. Conditions: 100 μM inhibitor; control without inhibitor = 100% activity. How it is done: LiARG expression and purification was performed as described previously (Garcia et al., [2019]). Escherichia coli BL21 (DE3) cells were transformed with RP1B-LiARG. Cells were grown at 37°C until mid-exponential phase (Abs600 ~ 0.6). Protein expression was induced with 1 mM IPTG and cells were grown for 16 h at 30°C. Cells were harvested by centrifugation, resuspended in lysis buffer [50 mM Tris-HCl (pH 8.0), 500 mM NaCl, 5 mM imidazol, 0.1% Triton-X 100, 250 μM PMSF, 10 mM β-mercaptoethanol] and lysed by sonication (15 cycles 60 s on and 60 s off, 100 W). The cell lysate was centrifuged (8,000 X g, 40 min, 4°C), and the clarified supernatant was loaded onto a His-Trap HP column (GE Healthcare, USA). A wash step with 100 mM manganese chloride was carried out for enzyme activation. LiARG was eluted with an imidazole gradient ranging from 5 to 500 mM. […] LiARG activity was measured using the UREA CE kit (Labtest, Brazil). Urea concentration was determined spectrophotometrically (SpectraMax M5, Molecular Devices, CA) by hydrolyzing urea into ammonia and then converting ammonia into indophenol blue, which absorbs light at 600 nm ([…] and Scott, [1960]). Enzyme activity was measured with 0.2 μg/mL LiARG incubated with 50 mM L-arginine in 50 mM CHES (pH 9.5) at 37°C for 5 min. […] The results are expressed as percentage of LiARG activity taking the enzymatic activity of the control as 100%. […]

For series [7], the system named is Leishmania amazonensis arginase (LaARG). The arrangement: method as in da Silva et al. (2019). The conditions noted are these: 100 μM; ref da Silva et al. (2019); cited from earlier work.
[8] abbreviates: Leishmania infantum, Macrophage, 48 h, infected macrophages treated 48 h, promastigote recovery, MTT, read-out: Amastigotes IC50 ± SE.

With `COc1ccc(C=CC(=O)c2ccc(Br)cc2)cc1OC` [LC14, 1-(4-bromophenyl)-3-(3,4-dimethoxyphenyl)-2-Propen-1-one], the CC50 at 48 h in “Cytotoxicity assay (MTT)” (RAW 264.7 macrophages) amounted to 75.1 ± 8.9 µM. Moreover, the IC50 in the series with RAW 264.7 macrophages [1] was 58.9 ± 6.8 µM; in series [2] (96 h, resazurin), 283 ± 14.2 µM. Further, in series [2], the “Selectivity Index PRO” value is on record as less than 1.
Take `O=C(C=Cc1ccc(F)cc1)c1ccccc1Cl` [LC32, 1-(2-Chlorophenyl)-3-(4-fluorophenyl)-2-Propen-1-one]: the “Selectivity Index AMA” value in series [3] is 4.3. Besides, the half-maximal inhibitory concentration (IC50) in series [3] (setting [8]) is 112 ± 19.8 µM; in series [2] (96 h, resazurin), 74.1 ± 10.9 µM. Further, in the series “Cytotoxicity assay (MTT)” (RAW 264.7 macrophages), the CC50 at 48 h worked out at 479 ± 19.5 µM. For the same compound, the “production of NO by L. infantum-infected macrophages” value (“production of NO” for short) in series [4] is given as “significantly decreased”. The “Selectivity Index PRO” value in series [2] came out at 6.5.
For the compound `COc1ccc(/C=C/C(=O)c2ccccc2Cl)cc1` [LC34], the “Selectivity Index AMA” value in series [3] worked out at 46.0. The IC50 in series [3] (setting [8]) came to 65.4 ± 10.9 µM; in series [2] (96 h, resazurin), 747 ± 22.3 µM. Moreover, the CC50 at 48 h in the series “Cytotoxicity assay (MTT)” (RAW 264.7 macrophages) was determined as 3010 µM. In addition, the “production of NO” value in series [4] is listed as “no significant difference to the untreated control”. Besides, the “Selectivity Index PRO” value in series [2] was determined as 4.0.
Regarding `O=C(c1ccccc1)C(C(O)c1ccccc1Cl)C(O)c1ccccc1Cl` (stereo not shown) [LC37, 3-hydroxy-2-[-hydroxy(2-Chlorophenyl)methyl]-3-(2-Chlorophenyl)-1-phenyl-1-Propanone], in the series “Cytotoxicity assay (MTT)” (RAW 264.7 macrophages), the CC50 at 48 h was greater than 4000 µM. Also, the “RAW 264.7 CC50 ± SE” value in the series on RAW 264.7 macrophages [5] is “did not inhibit the growth of RAW 264.7 macrophages at the highest concentration tested”. For the same compound, in series [2] (96 h, resazurin), the “Promastigotes IC50 ± SE” value is on record as “did not display in vitro activity” and the IC50 is greater than 1500 µM.
Regarding `O=C(C=Cc1ccc([N+](=O)[O-])cc1)c1ccc(Br)cc1` [LC39, 1-(4-Bromophenyl)-3-(4-Nitrophenyl)-2-Propen-1-one], the “Selectivity Index AMA” value in series [3] came out at 107.1. Also, the IC50 was determined as 55.2 ± 3.8 µM in series [3] (Leishmania infantum, Macrophage, 48 h, read-out: Amastigotes IC50 ± SE, infected macrophages treated 48 h, promastigote recovery, MTT); 42.3 ± 17.1 µM in series [3] (read-out: Amastigotes IC50 ± SE, infected macrophages treated 48 h, promastigote recovery, MTT); 398 ± 44.2 µM in series [2] (96 h). The CC50 at 48 h in the series “Cytotoxicity assay (MTT)” is 4530 ± 212 µM. Also, the “production of NO” value in series [4] is recorded as “no significant difference to the untreated control”. Also, the “Selectivity Index PRO” value in series [2] is given as 11.4.
In the case of `COc1ccc(C(=O)C=Cc2ccc([N+](=O)[O-])cc2)cc1` [LC41, 1-(4-Methoxyphenyl)-3-(4-Nitrophenyl)-2-Propen-1-one], the “Selectivity Index AMA” value in series [3] is 26.2. In addition, the IC50 was 70.4 ± 9.6 µM in series [3] (setting [8]); 43.7 ± 13.7 µM in series [3] (infected macrophages treated 48 h, promastigote recovery, MTT, read-out: Amastigotes IC50 ± SE); 13.5 ± 5.5 µM with RAW 264.7 macrophages [1]; 319 ± 14.3 µM in series [2] (96 h, resazurin). The CC50 at 48 h in “Cytotoxicity assay (MTT)” (RAW 264.7 macrophages) was found to be 1150 µM. Further, the “production of NO” value in series [4] is given as “significantly decreased”. For the same compound, in series [2], the “Selectivity Index PRO” value is on record as 3.6.
Take `O=c1c(O)c(-c2ccc(O)c(O)c2)oc2cc(O)cc(O)c12` [quercetin]: in series [6], the “ARGLi inhibition (%) (100 μM)” value was found to be 67.1 ± 10.3%.
For the compound `O=C1c2c(O)cc(O)cc2OC(c2ccc(O)c(O)c2)C1O` (stereo not shown) [taxifolin], the LaARG inhibition in series [7] is given as 88%.
